According to US11059786B2, “Aminopyridine compounds and methods for the preparation and use thereof” (Cortexyme, Inc., priority 2017, dated 2021):

Biological target: T1, RgpB (Porphyromonas gingivalis, UniProt P95493)
T1 construct: 0.02 nM RgpB, isolated from culture of Porphyromonas gingivalis; endogenous in cells
Experiment: RgpB inhibition, fluorogenic assay
Format: biochemical
Conditions: Activity (RgpB IC50), 0.02 nM RgpB, 10 μM Boc-Phe-Ser-Arg-MCA, 90 minutes, 37° C.
Protocol: The capacities of compounds of the present invention to inhibit the activity of RgpB were measured in a fluorogenic assay similar to those described in Barret Biochemical Journal. 1980, 187(3), 909. The specific assay conditions were as follows. Buffer: pH=7.5, 100 mM Tris-HCl, 75 mM NaCl, 2.5 mM CaCl2, 10 mM cysteine, 1% DMSO after all additions. Protein: 0.02 nM RgpB, isolated from culture of Porphyromonas gingivalis, as described in Pike et al. J. Biol. Chem. 1994, 269(1), 406, and Potempa and Nguyen. Current Protocols in Protein Scienc. 2007, 21.20.1-21.20.27. Fluorogenic substrate: 10 μM Boc-Phe-Ser-Arg-MCA. Time=90 minutes. Temperature=37° C. Each compound: 10 concentrations, starting at either 100 μM or 100 nM, with lower concentrations generated by serial 3-fold dilutions. By testing a range of concentrations for each compound, the concentration required to inhibit the activity of RgpB by 50% (the “IC50”) was determined.

T1 sequence (P95493 230-664): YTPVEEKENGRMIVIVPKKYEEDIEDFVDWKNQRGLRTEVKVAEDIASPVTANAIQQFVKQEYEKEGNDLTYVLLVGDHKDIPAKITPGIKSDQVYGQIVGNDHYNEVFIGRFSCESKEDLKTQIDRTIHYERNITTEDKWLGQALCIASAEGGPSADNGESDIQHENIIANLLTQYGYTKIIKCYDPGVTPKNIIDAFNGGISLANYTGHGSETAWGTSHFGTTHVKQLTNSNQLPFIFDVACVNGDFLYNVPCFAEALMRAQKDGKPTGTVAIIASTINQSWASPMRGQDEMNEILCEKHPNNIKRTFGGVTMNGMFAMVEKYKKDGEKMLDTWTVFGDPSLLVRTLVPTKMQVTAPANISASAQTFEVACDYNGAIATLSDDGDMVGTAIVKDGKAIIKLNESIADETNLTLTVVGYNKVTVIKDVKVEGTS

Row | Compound | IC50 (pH=7.5) [µM] | IC50 (compound not tested above 1 μM) [µM]
1 | N#CN1CCC[C@H]1C(O)Cc1ccnc(N)c1 (stereo partly drawn) [Compound 31, (2S)-2-(2-(2-aminopyridin-4-yl)-1-hydroxyethyl)pyrrolidine-1-carbonitrile] | > 100 | 
2 | CNc1nccc2cc([C@H]3CCCN3C#N)ccc12 [Compound 51b, (R)-2-(1-(methylamino)isoquinolin-6-yl)pyrrolidine-1-carbonitrile] | 10 to 100 | 
3 | Nc1ccc(CC(NC(=O)C2CCCC2)C(=O)COc2ccon2)cn1 (stereo not drawn) [Compound 68, N-(1-(6-aminopyridin-3-yl)-4-(isoxazol-3-yloxy)-3-oxobutan-2-yl)cyclopentanecarboxamide] | < 0.1 | 
4 | N#CN1c2ccccc2CC1COc1ccnc(N)c1 (stereo not drawn) [Compound 24, 2-(((2-aminopyridin-4-yl)oxy)methyl)indoline-1-carbonitrile] | 10 to 100 | 
5 | Nc1ccc(CC(NC(=O)C2CCCC2)C(=O)COc2c(F)ccc(F)c2F)cn1 (stereo not drawn) [Compound 66, N-(1-(6-aminopyridin-3-yl)-3-oxo-4-(2,3,6-trifluorophenoxy)butan-2-yl)cyclopentanecarboxamide] | < 0.1 | 
6 | N#CN1CCCC1CCOc1ccnc(N)c1 (stereo not drawn) [Compound 16, 2-(2-((2-aminopyridin-4-yl)oxy)ethyl)pyrrolidine-1-carbonitrile] | 10 to 100 | 
7 | COC(C)(C)C(=O)NC(Cc1ccc(N)nc1)C(=O)COc1c(F)ccc(F)c1F (stereo not drawn) [Compound 62, N-(1-(6-aminopyridin-3-yl)-3-oxo-4-(2,3,6-trifluorophenoxy)butan-2-yl)-2-methoxy-2-methylpropanamide] | 0.1 to 1 | 
8 | CCC(COc1ccnc(N)c1)N(C)C#N (stereo not drawn) [Compound 35, N-(1-((2-aminopyridin-4-yl)oxy)butan-2-yl)-N-methylcyanamide] | 1 to 10 | 
9 | COC(C)(C)C(=O)NC(Cc1ccnc(N)c1)C(=O)COc1c(F)ccc(F)c1F (stereo not drawn) [Compound 64, N-(1-(2-aminopyridin-4-yl)-3-oxo-4-(2,3,6-trifluorophenoxy)butan-2-yl)-2-methoxy-2-methylpropanamide] | 0.1 to 1 | 
10 | Nc1cc(CC(NC(=O)C2CCCC2)C(=O)COc2c(F)ccc(F)c2F)ccn1 (stereo not drawn) [Compound 69, N-(1-(2-aminopyridin-4-yl)-3-oxo-4-(2,3,6-trifluorophenoxy)butan-2-yl)cyclopentanecarboxamide] | < 0.1 | 
11 | Nc1cc(CC(NC(=O)C2CCCC2)C(=O)COc2c(F)cccc2F)ccn1 (stereo not drawn) [Compound 55, N-(1-(2-aminopyridin-4-yl)-4-(2,6-difluorophenoxy)-3-oxobutan-2-yl)cyclopentanecarboxamide] | < 0.1 | 
12 | CN(C)c1nccc2cc([C@H]3CCCN3C#N)ccc12 [Compound 52b, (R)-2-(1-(dimethylamino)isoquinolin-6-yl)pyrrolidine-1-carbonitrile] |  | > 1
13 | N#CN1CC(COc2ccnc(N)c2)C1 [Compound 10, 3-(((2-aminopyridin-4-yl)oxy)methyl)azetidine-1-carbonitrile] | > 100 | 
14 | CC(C)N(C#N)CCCc1ccnc(N)c1 [Compound 6, N-(3-(2-aminopyridin-4-yl)propyl)-N-isopropylcyanamide] | 10 to 100 | 
15 | CNc1nccc2cc([C@@H]3CCCN3C#N)ccc12 [Compound 51a, (S)-2-(1-(methylamino)isoquinolin-6-yl)pyrrolidine-1-carbonitrile] | 10 to 100 | 
16 | N#CN1CCC(CCOc2ccnc(N)c2)C1 (stereo not drawn) [Compound 17, 3-(2-((2-aminopyridin-4-yl)oxy)ethyl)pyrrolidine-1-carbonitrile] | 1 to 10 | 
17 | Nc1ccc(CCC(NC(=O)C2CCCC2)C(=O)COc2ccon2)cn1 (stereo not drawn) [Compound 74, N-(5-(6-aminopyridin-3-yl)-1-(isoxazol-3-yloxy)-2-oxopentan-3-yl)cyclopentanecarboxamide] | < 0.1 | 
18 | Nc1cc(CCC(NC(=O)C2CCCC2)C(=O)COc2ccon2)ccn1 (stereo not drawn) [Compound 71, N-(5-(2-aminopyridin-4-yl)-1-(isoxazol-3-yloxy)-2-oxopentan-3-yl)cyclopentanecarboxamide] | 0.1 to 1 | 
19 | N#CN1CCC[C@@H]1c1ccc2c(N)nccc2c1 [Compound 43, (R)-2-(1-aminoisoquinolin-6-yl)pyrrolidine-1-carbonitrile] | < 0.1 | 
20 | N#CN1CCC[C@@H]1COc1ccnc(N)c1 [Compound 20, (R)-2-(((2-aminopyridin-4-yl)oxy)methyl)pyrrolidine-1-carbonitrile] | 1 to 10 | 
21 | N#CN1CCCC(Oc2ccnc(N)c2)C1 (stereo not drawn) [Compound 9, 3-((2-aminopyridin-4-yl)oxy)piperidine-1-carbonitrile] | 0.1 to 1 | 
22 | N#CN1CC(Oc2ccnc(N)c2)C1 [Compound 7, 3-((2-aminopyridin-4-yl)oxy)azetidine-1-carbonitrile] | > 100 | 
23 | CN(C#N)c1ccccc1Oc1ccnc(N)c1 [Compound 27, N-(2-((2-aminopyridin-4-yl)oxy)phenyl)-N-methylcyanamide] | > 100 | 

Row | Compound | IC50 (pH=7.5) [µM] | IC50 (compound not tested above 1 μM) [µM]
24 | COC(C)(C)C(=O)NC(Cc1ccc(N)nc1)C(=O)COC(C(F)(F)F)C(F)(F)F (stereo not drawn) [Compound 72, N-(1-(6-aminopyridin-3-yl)-4-((1,1,1,3,3,3-hexafluoropropan-2-yl)oxy)-3-oxobutan-2-yl)-2-methoxy-2-methylpropanamide] |  | > 1
25 | CNc1cc(OCC2CCCN2C#N)ccn1 (stereo not drawn) [Compound 22, 2-(((2-(methylamino)pyridin-4-yl)oxy)methyl)pyrrolidine-1-carbonitrile] | 0.1 to 1 | 
26 | N#CN1CCC1COc1ccnc(N)c1 (stereo not drawn) [Compound 11, 2-(((2-aminopyridin-4-yl)oxy)methyl)azetidine-1-carbonitrile] | > 100 | 
27 | CC(C)N(C#N)CCOc1ccnc(N)c1 [Compound 39, N-(2-((2-aminopyridin-4-yl)oxy)ethyl)-N-isopropylcyanamide] | 10 to 100 | 
28 | N#CN1C[C@@H](O)C[C@H]1c1ccc2c(N)nccc2c1 [Compound 50a, (2S,4S)-2-(1-aminoisoquinolin-6-yl)-4-hydroxypyrrolidine-1-carbonitrile] | < 0.1 | 
29 | CC(CN(C)C#N)Oc1ccnc(N)c1 (stereo not drawn) [Compound 15, N-(2-((2-aminopyridin-4-yl)oxy)propyl)-N-methylcyanamide] | 0.1 to 1 | 
30 | COC(C)(C)C(=O)NC(Cc1ccc(N)nc1)C(=O)COc1c(F)c(F)cc(F)c1F (stereo not drawn) [Compound 60, N-(1-(6-aminopyridin-3-yl)-3-oxo-4-(2,3,5,6-tetrafluorophenoxy)butan-2-yl)-2-methoxy-2-methylpropanamide] | < 0.1 | 
31 | CN(C#N)CCOc1ccnc(N)c1 [Compound 13, N-(2-((2-aminopyridin-4-yl)oxy)ethyl)-N-methylcyanamide] | 0.1 to 1 | 
32 | CN(C#N)C(COc1ccnc(N)c1)c1ccccc1 (stereo not drawn) [Compound 36, N-(2-((2-aminopyridin-4-yl)oxy)-1-phenylethyl)-N-methylcyanamide] | 1 to 10 | 
33 | CC(c1ccc2c(N)nccc2c1)N(C)C#N (stereo not drawn) [Compound 46, N-(1-(1-aminoisoquinolin-6-yl)ethyl)-N-methylcyanamide] | 1 to 10 | 
34 | Nc1ccc(CC(NC(=O)C2CCCC2)C(=O)COc2c(F)cccc2F)cn1 (stereo not drawn) [Compound 67, N-(1-(6-aminopyridin-3-yl)-4-(2,6-difluorophenoxy)-3-oxobutan-2-yl)cyclopentanecarboxamide] | < 0.1 | 
35 | Nc1cc(CC(NC(=O)C2CCCC2)C(=O)COc2c(F)c(F)cc(F)c2F)ccn1 (stereo not drawn) [Compound 54, N-(1-(2-aminopyridin-4-yl)-3-oxo-4-(2,3,5,6-tetrafluorophenoxy)butan-2-yl)cyclopentanecarboxamide] | < 0.1 | 
36 | N#CN1CCCC1CCCOc1ccnc(N)c1 (stereo not drawn) [Compound 18, 2-(3-((2-aminopyridin-4-yl)oxy)propyl)pyrrolidine-1-carbonitrile] | 10 to 100 | 
37 | CN(C)c1cc(OCC2CCCN2C#N)ccn1 (stereo not drawn) [Compound 23, 2-(((2-(dimethylamino)pyridin-4-yl)oxy)methyl)pyrrolidine-1-carbonitrile] | 10 to 100 | 
38 | N#CN1CCC(Oc2ccnc(N)c2)CC1 [Compound 8, 4-((2-aminopyridin-4-yl)oxy)piperidine-1-carbonitrile] | > 100 | 
39 | CN(C)c1nccc2cc([C@@H]3CCCN3C#N)ccc12 [Compound 52a, (S)-2-(1-(dimethylamino)isoquinolin-6-yl)pyrrolidine-1-carbonitrile] |  | > 1
40 | N#CN1CCN(c2ccnc(N)c2)CC1 [Compound 33, 4-(2-aminopyridin-4-yl)piperazine-1-carbonitrile] | 1 to 10 | 
41 | CN(C#N)c1ccc2ccnc(N)c2c1 [Compound 1, N-(1-aminoisoquinolin-7-yl)-N-methylcyanamide] | > 100 | 
42 | N#CN1CCC[C@H]1COc1ccnc(N)c1 [Compound 19, (S)-2-(((2-aminopyridin-4-yl)oxy)methyl)pyrrolidine-1-carbonitrile] | < 0.1 | 
43 | N#CN1Cc2ccccc2C1COc1ccnc(N)c1 (stereo not drawn) [Compound 25, 1-(((2-aminopyridin-4-yl)oxy)methyl)isoindoline-2-carbonitrile] | 0.1 to 1 | 
44 | N#CN1CCC(Oc2ccnc(N)c2)C1 (stereo not drawn) [Compound 2, 3-((2-aminopyridin-4-yl)oxy)pyrrolidine-1-carbonitrile] | 0.1 to 1 | 
45 | N#CN1C[C@H](O)C[C@@H]1c1ccc2c(N)nccc2c1 [Compound 49, (2R,4R)-2-(1-aminoisoquinolin-6-yl)-4-hydroxypyrrolidine-1-carbonitrile] | < 0.1 | 
